Measured values taken from patent US11655246B2, “Aminothiazole compounds as inhibitors of CTPS1” (STEP PHARMA S.A.S., priority 2017, dated 2023).
Where a name gives a salt, the structure may show the parent alone.

Each molecule was assayed against T1, human CTPS1 (Homo sapiens, UniProt P17812) (assay: Human CTPS1 enzyme inhibition (ADP-Glo Max assay)). Conditions: Table 17, 25° C., read-out: CTPS1 (Human CTPS1 Enzyme Inhibition data grouped by potency range).
T1 construct: purchased Proteros biostructures GmbH
T1 sequence (P17812 1-591): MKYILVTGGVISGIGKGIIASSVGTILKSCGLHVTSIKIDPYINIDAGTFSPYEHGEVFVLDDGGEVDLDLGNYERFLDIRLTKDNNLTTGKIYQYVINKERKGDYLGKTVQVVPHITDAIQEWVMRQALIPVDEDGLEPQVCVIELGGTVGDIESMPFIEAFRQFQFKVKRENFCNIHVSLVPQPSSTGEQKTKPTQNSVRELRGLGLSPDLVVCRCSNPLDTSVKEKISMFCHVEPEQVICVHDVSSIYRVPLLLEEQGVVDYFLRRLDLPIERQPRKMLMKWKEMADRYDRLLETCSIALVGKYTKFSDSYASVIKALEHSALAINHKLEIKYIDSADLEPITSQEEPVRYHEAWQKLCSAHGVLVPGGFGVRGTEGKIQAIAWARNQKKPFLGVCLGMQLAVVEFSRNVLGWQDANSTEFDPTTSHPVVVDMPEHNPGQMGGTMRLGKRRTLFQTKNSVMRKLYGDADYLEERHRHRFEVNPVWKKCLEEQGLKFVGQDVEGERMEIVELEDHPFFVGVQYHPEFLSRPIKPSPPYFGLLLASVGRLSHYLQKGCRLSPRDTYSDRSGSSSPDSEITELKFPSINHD
Assay type: biochemical
Protocol: The enzyme inhibitory activities of compounds invented against the target of interest were determined using the ADP-Glo™ Max assay (Promega, UK). Assays for human CTPS1 were performed in 1× assay buffer containing 50 mM Tris, 10 mM MgCl2, 0.01% Tween-20, pH to 8.0 accordingly. Finally, immediately before use, L-cysteine was added to the 1× assay buffer to a final concentration of 2 mM. All reagents are from Sigma-Aldrich unless specified otherwise.
3× human CTPS1 protein was prepared in 1× assay buffer to the final working protein concentration required for the reaction. A 2 uL volume per well of 3× human CTPS1 protein was mixed with 2 uL per well of 3× test compound (compound prepared in 1× assay buffer to an appropriate final 3× compound concentration respective to the concentration response curve designed for the compounds under test) for 10 minutes at 25° C. […] ADP-Glo™ Max reagent was added for 60 minutes (6 uL per well) and subsequently ADP-Glo™ Max development reagent was added for 60 minutes (12 uL per well) prior to signal detection in a microplate reader (EnVision® Multilabel Reader, Perkin Elmer). Following each reagent addition over the course of the assay, assay plates were pulse centrifuged for 30 seconds at 500 rpm.
In all cases, the enzyme converts ATP to ADP and the ADP-Glo™ Max reagent subsequently depletes any remaining endogenous ATP in the reaction system. The ADP-Glo™ Max detection reagent converts the ADP that has been enzymatically produced back into ATP and using ATP as a substrate together with luciferin for the enzyme luciferase, light is generated which produces a detectable luminescence. […] The percentage inhibition produced by each concentration of compound was calculated using the equation shown below: […]

Structure (SMILES) | IC50 [nM]
CCC(C(=O)Nc1ccc(-c2cccnc2)cc1)c1csc(NS(=O)(=O)C2CC2)n1 (racemic) [T5, 2-(2-(cyclopropanesulfonamido)thiazol-4-yl)-N-(4-(pyridin-3-yl)phenyl)butanamide] | < 100
CCC(C(=O)Nc1ccc(-c2cncc(Cl)c2)cc1)c1csc(NS(=O)(=O)C2CC2)n1 (racemic) [T8, N-(4-(5-chloropyridin-3-yl)phenyl)-2-(2-(cyclopropanesulfonamido)thiazol-4-yl)butanamide] | < 100
CC(C)C(C(=O)Nc1ccc(-c2cccnc2)cc1)c1csc(NS(=O)(=O)C2CC2)n1 (racemic) [T12, 2-(2-(cyclopropanesulfonamido)thiazol-4-yl)-3-methyl-N-(4-(pyridin-3-yl)phenyl)butanamide] | 100 to 1000
CCC(C(=O)Nc1ccc(-c2cccnc2)cc1)c1csc(NS(=O)(=O)C2CC2)n1 (single isomer, unassigned) [T6, 2-(2-(cyclopropanesulfonamido)thiazol-4-yl)-N-(4-(pyridin-3-yl)phenyl)butanamide.HCl] | 100 to 1000
CCC(C(=O)Nc1ccc(-c2cccnc2)cc1)c1csc(NS(=O)(=O)C2CC2)n1 (single isomer, unassigned) [T7, 2-(2-(cyclopropanesulfonamido)thiazol-4-yl)-N-(4-(pyridin-3-yl)phenyl)butanamide.HCl] | < 100
CCC(C(=O)Nc1ccc(-c2cncc(Cl)c2)cc1)c1csc(NS(=O)(=O)C2CC2)n1 (single isomer, unassigned) [T9, N-(4-(5-chloropyridin-3-yl)phenyl)-2-(2-(cyclopropanesulfonamido)thiazol-4-yl)butanamide.HCl] | < 100
CCC(C(=O)Nc1ccc(-c2cncc(Cl)c2)cc1)c1csc(NS(=O)(=O)C2CC2)n1 (single isomer, unassigned) [T10, N-(4-(5-chloropyridin-3-yl)phenyl)-2-(2-(cyclopropanesulfonamido)thiazol-4-yl)butanamide.HCl] | < 100
CC(C)C(C(=O)Nc1ccc(-c2cccnc2)cc1)c1csc(NS(=O)(=O)C2CC2)n1 (single isomer, unassigned) [T13, 2-(2-(cyclopropanesulfonamido)thiazol-4-yl)-3-methyl-N-(4-(pyridin-3-yl)phenyl)butanamide.HCl] | 100 to 1000
CC(C)C(C(=O)Nc1ccc(-c2cccnc2)cc1)c1csc(NS(=O)(=O)C2CC2)n1 (single isomer, unassigned) [T14, 2-(2-(cyclopropanesulfonamido)thiazol-4-yl)-3-methyl-N-(4-(pyridin-3-yl)phenyl)butanamide.HCl] | 100 to 1000
CCC(C(=O)Nc1ccc(-c2cncc(F)c2)cc1)c1csc(NS(=O)(=O)C2CC2)n1 (single isomer, unassigned) [T72] | < 100
CCC(C(=O)Nc1ccc(-c2cncc(C(F)(F)F)n2)cc1)c1csc(NS(=O)(=O)C2CC2)n1 (single isomer, unassigned) [T106] | < 100
COc1cncc(-c2ccc(NC(=O)C(OC)c3csc(NS(=O)(=O)C4CC4)n3)cc2)n1 (single isomer, unassigned) [T107] | < 100
CCOc1cncc(-c2ccc(NC(=O)C(CC)c3csc(NS(=O)(=O)C4CC4)n3)cc2)n1 (single isomer, unassigned) [T204] | < 100
CCC(C(=O)Nc1ccc(-c2cncc(OCC(F)(F)F)n2)cc1)c1csc(NS(=O)(=O)C2CC2)n1 (single isomer, unassigned) [T222] | 100 to 1000
CCC(C(=O)Nc1ccc(-c2cncc(OCC(F)(F)F)n2)cc1)c1csc(NS(=O)(=O)C2CC2)n1 (single isomer, unassigned) [T223] | < 100
CS(=O)(=O)Nc1nc(CC(=O)Nc2ccc(-c3ccccc3)cc2)cs1 [T1, N-([1,1′-biphenyl]-4-yl)-2-(2-(methylsulfonamido)thiazol-4-yl)acetamide] | 1000 to 10000
CCC(CC)(C(=O)Nc1ccc(-c2cnccn2)cn1)c1csc(NS(=O)(=O)C2CC2)n1 [T3, 2-(2-(cyclopropanesulfonamido)thiazol-4-yl)-2-ethyl-N-(5-(pyrazin-2-yl)pyridin-2-yl)butanamide] | 100 to 1000
CC(C)(C(=O)Nc1ccc(-c2ncccn2)cc1)c1csc(NS(=O)(=O)C2CC2)n1 [T4, 2-(2-(cyclopropanesulfonamido)thiazol-4-yl)-2-methyl-N-(4-(pyrimidin-2-yl)phenyl)propanamide] | 1000 to 10000
CC(C)C(C(=O)Nc1ccc(-c2cncnc2)cc1)c1csc(NS(=O)(=O)C2CC2)n1 (stereo not shown) [T11, 2-(2-(cyclopropanesulfonamido)thiazol-4-yl)-3-methyl-N-(4-(pyrimidin-5-yl)phenyl)butanamide] | 100 to 1000
COc1cncc(-c2ccc(NC(=O)C(C)(C)c3csc(NS(=O)(=O)C4CC4)n3)cc2)c1 [T15, 2-(2-(cyclopropanesulfonamido)thiazol-4-yl)-N-(4-(5-methoxypyridin-3-yl)phenyl)-2-methylpropanamide] | 100 to 1000

Same assay, conditions: Table 18, additional potency data, 25° C., read-out: CTPS1 (Human CTPS1 Enzyme Inhibition data grouped by potency range)

Structure (SMILES) | IC50 [nM]
CCOc1cncc(-c2ccc(NC(=O)C(OC)c3csc(NS(=O)(=O)C4CC4)n3)cc2)n1 (racemic) [T410, 2-(2-(cyclopropanesulfonamido)thiazol-4-yl)-N-(4-(6-ethoxypyrazin-2-yl)phenyl)-2-methoxyacetamide] | < 100
CCOc1cncc(-c2ccc(NC(=O)C(OC)c3csc(NS(=O)(=O)C4CC4)n3)cc2)n1 (single isomer, unassigned) [T330, 2-(2-(cyclopropanesulfonamido)thiazol-4-yl)-N-(4-(6-ethoxypyrazin-2-yl)phenyl)-2-methoxyacetamide] | < 100
CCOc1cncc(-c2ccc(NC(=O)C(OC)c3csc(NS(=O)(=O)C4CC4)n3)cc2)n1 (single isomer, unassigned) [T331, 2-(2-(cyclopropanesulfonamido)thiazol-4-yl)-N-(4-(6-ethoxypyrazin-2-yl)phenyl)-2-methoxyacetamide] | < 100
CCOc1cncc(-c2ccc(NC(=O)C(CC)c3csc(NS(=O)(=O)C4CC4)n3)c(F)c2)n1 (single isomer, unassigned) [T412, 2-(2-(cyclopropanesulfonamido)thiazol-4-yl)-N-(4-(6-ethoxypyrazin-2-yl)-2-fluorophenyl)butanamide] | < 100
CCOc1cncc(-c2ccc(NC(=O)C(CC)c3csc(NS(=O)(=O)C4CC4)n3)c(F)c2)n1 (single isomer, unassigned) [T413, 2-(2-(cyclopropanesulfonamido)thiazol-4-yl)-N-(4-(6-ethoxypyrazin-2-yl)-2-fluorophenyl)butanamide] | < 100
CCC(C(=O)Nc1ccc(-c2cncc(C(F)(F)F)n2)cn1)c1csc(NS(=O)(=O)C2CC2)n1 (single isomer, unassigned) [T414, 2-(2-(cyclopropanesulfonamido)thiazol-4-yl)-N-(5-(6-(trifluoromethyl)pyrazin-2-yl)pyridin-2-yl)butanamide] | < 100
CCC(C(=O)Nc1ccc(-c2cncc(C(F)(F)F)c2)cc1F)c1csc(NS(=O)(=O)C2CC2)n1 (single isomer, unassigned) [T415, 2-(2-(cyclopropanesulfonamido)thiazol-4-yl)-N-(2-fluoro-4-(5-(trifluoromethyl)pyridin-3-yl)phenyl)butanamide] | 100 to 1000
CCC(C(=O)Nc1ccc(-c2cncc(C(F)(F)F)c2)cc1F)c1csc(NS(=O)(=O)C2CC2)n1 (single isomer, unassigned) [T416, 2-(2-(cyclopropanesulfonamido)thiazol-4-yl)-N-(2-fluoro-4-(5-(trifluoromethyl)pyridin-3-yl)phenyl)butanamide] | < 100
CCOc1cncc(-c2cnc(NC(=O)C(CC)c3csc(NS(=O)(=O)C4CC4)n3)c(F)c2)n1 (single isomer, unassigned) [T456] | < 100
CCC(C(=O)Nc1ccc(-c2cncc(C(F)(F)F)n2)cc1F)c1csc(NS(=O)(=O)C2CC2)n1 (single isomer, unassigned) [T458] | < 100
COC(C(=O)Nc1ccc(-c2cncc(C(F)(F)F)n2)cc1F)c1csc(NS(=O)(=O)C2CC2)n1 (single isomer, unassigned) [T459] | < 100
